Columns and labels:
Format in all cases: cell-based
Nrf2 target genes = test: Gene expression (RT-PCR) in cultured human astrocytes; conditions: 20 hours, increasing concentrations
Experimental: (§1) Human astrocytes from ScienCell (cat #1820) were grown in astrocyte medium per supplier's instructions. Cells cultured for no more than two passages were plated in 96-well plates at 40,000 cells per well for gene transcription experiments and 20,000 cell per well for glutathione and cytoprotection assays.
Primary cultures of human spinal cord astrocytes were treated with compound 3-Ent1 for 20 hours. The cells were then rinsed in PBS, lysed, and processed for RNA using Ambion Taqman™ Cells-to-CT kit. The resulting cDNA was stored at −20° C. until analysis by real-time polymerase chain reaction (RT-PCR). The cDNA mixture from Cells-to-CT was diluted 5x before loading into PCR. This yields results similar to using 6 ng of purified cDNA. RT-PCR was performed on Life Technologies QuantStudio platform using OpenArray technique according to manufacturer's protocol using the following Taqman primers: […]
The comparative CT method was used to calculate fold changes using ThermoFisher Cloud software for PCR analysis. Samples were compared to vehicle control.

human astrocytes [1] = test: Glutathione assay (GSH-Glo) in human astrocytes; conditions: 20-hr exposure (FIG. 2)
Experimental: as §1
Intracellular glutathione was measured after a 20-hr exposure to test compound 3-Ent1 by a two-step process. First, cells were lysed and luciferin quantitatively generated from substrate, catalyzed by glutathione-S-transferase in the presence of analyte glutathione. Then luciferin was assayed using stabilized luciferase to produce a luminescent signal proportional to the concentration of glutathione (Promega GSH-Glo, cat #V6912).

human astrocytes [2] = test: Cytoprotection of astrocytes against sodium arsenite; conditions: compound 20 hrs before 25 μM sodium arsenite, further 22 hrs (FIG. 3)
Experimental: as §1
Astrocytes were treated for 20 hrs as above, then the medium was removed and replaced with serum- and supplement-free growth medium with and without 25 μM sodium arsenite. After 22 hrs., cells were washed with PBS, fixed with 4% paraformaldehyde/4% sucrose in PBS, stained with 4′,6-Diamidino-2-phenylindole dihydrochloride (DAPI) and counted by quantitative fluorescence microscopy.

**Q.** With `CC1CCC2(C)C=C(C#N)C(=O)C(C)(C)C2O1` (single isomer, unassigned; ent1) [Compound 3-Ent1] as the compound, how does the “transcription of GCLC” value (Nrf2 target genes; compared to vehicle control (FIG. 1A)) read?
**A.** induces transcription

**Q.** What about the “transcription of HMOX1” value (Nrf2 target genes; compared to vehicle control (FIG. 1B)) of the same compound?
**A.** induces transcription

**Q.** What about the “transcription of OSGIN1” value (Nrf2 target genes; compared to vehicle control (FIG. 1C)) of the same compound?
**A.** induces transcription

**Q.** What about the “transcription of NQO1” value (Nrf2 target genes; compared to vehicle control (FIG. 1D)) of the same compound?
**A.** induces transcription

**Q.** What about the intracellular glutathione (human astrocytes [1]) of the same compound?
**A.** increases

**Q.** What about the “protection from oxidative stress-induced cell death” value (human astrocytes [2]) of the same compound?
**A.** protects cells

From patent US20190389830A1, “NRF2 ACTIVATOR” (BIOGEN MA INC., priority 2017, published 2019)
